What was measured:
BaF3 KRAS G12C/Y96D = assay: MTT assay for cell viability; assay type: cell-based; settings: Mus musculus, 48 h, 3 independent experiments
Protocol: (§1) FIGS. 4a) and 4b): MTT assay for cell viability in 96 well cell culture plate Cells were treated with Sanguinarine chloride for 48 h and cell viability was evaluated by MTT assay. DMSO-treated cells were set as 1. The results shown are mean±SEM from 3 independent experiments.

BaF3 KRAS G12C = assay: MTT assay for cell viability; assay type: cell-based; settings: Mus musculus, 48 h, 3 independent experiments
Protocol: as §1

KRAS dependent cells = assay: MTT assay for cell viability; assay type: cell-based; settings: 48 h, irrespective of the presence of mutation
Protocol: as §1

KRAS G12V = target: T1, KRAS G12V (Homo sapiens, UniProt P01116, G12V); assay: NanoBit assay for RAS activation (LgBiT-KRAS G12V / SmBiT-CRAF RBD); assay type: cell-based; settings: 2 h with inhibitor, serum free DMEM
T1 construct: CRAF RBD (1-149) fused to SmBiT; transfected cells
Protocol: (§2) FIGS. 1a), 1b) and 1c): NanoBit assay for RAS activation (KRAS G12V, NRAS G12V, HRAS G12V)
(§3) N-terminal LgBiT and C-terminal SmBiT construct was purchased from Promega and K, N and HRAS G12V (full length) was cloned with Xho I and Bgl II to LgBit and CRAF Ras binding domain (1-149) was cloned with EcoRI and Bgl II to SmBit. For transfections, 1 μg or 2 μg of (12 well/6 well) plasmids were transfected into cells with 0.5 mM of PEI reagent in 100 μl or 200 μl PBS. One day after transfection, cells were harvested and seeded into 96 well white plates, half area (Greiner). After an additional day the medium was changed to serum free DMEM and the cells were incubated for 2 h with inhibitor. NanoGlo assay was performed according to the manufacturer's instructions. The luminescence was measured using Tecan infinite (Tecan).
(§4) HeLa S3 (DSMZ) were authenticated by Eurofin genomics and cultured in DMEM (10% heat inactivated FBS). NCI-H358 cells were cultured in RPMI-1640 (10% heat inactivated FBS).

sNF96.2 = assay: RASOpathie-Model; MTT assay for cell viability; assay type: cell-based; settings: sNF96.2, 48 h
Protocol: FIG. 5: RASOpathie-Model Sanguinarine chloride; MTT assay for cell viability in 96 well cell culture plate
Cells were treated with Sanguinarine chloride for 48 h and cell viability was evaluated by MTT assay. DMSO-treated cells were set as 1. The results shown are mean±SEM from 3 independent experiments.

[1] = system: KRAS mutants (G12V, G12C, G12D, G12C/Y96D, G13C, G13D, G13S, Q61K and Q61R); assay: NanoBiT assay for the RAS GTP-loading in HeLa cells transfected with LgBit-KRAS mutants and SmBit-CRAF-RBD; assay type: cell-based; settings: 2 h, serum-free DMEM
Protocol: NanoBiT assay for the RAS GTP-loading was performed in HeLa cells transfected with LgBit-KRAS mutants and SmBit-CRAF-RBD. Cells were treated with Sanguinarine chloride for 2 h in serum-free DMEM. After incubation, the substrate for NanoLuc was added, and the luminescence was measured in a multiplate reader. Data were normalized to cells transfected with the indicated mutant and exposed to DMSO for 2 h. DMSO-treated cells were set as 1. The bars represent mean±SEM from 3 independent experiments.
as §4

HRAS G12V = target: T2, HRAS G12V (Homo sapiens, UniProt P01112, G12V); assay: NanoBit assay for RAS activation (LgBiT-HRAS G12V / SmBiT-CRAF RBD); assay type: cell-based; settings: 2 h with inhibitor, serum free DMEM
T2 construct: CRAF RBD (1-149) fused to SmBiT; transfected cells (HeLa S3 likely), NanoBiT
Protocol: as §2, §3, §4

HT1080 = assay: Soft agar colony formation assay, MTT; assay type: cell-based; settings: Homo sapiens, HT-1080, 3 independent experiments
Protocol: (§5) FIGS. 2a), 2b) and 2c): MTT assay for cell growth
(§6) Metabolic activity was quantified using Cell Proliferation Kit I (Roche, Basel, Switzerland). Cells were seeded in 96-well cell culture plates, using 5000 cells per well for NCI-H358 cells. After treatment, 10 μl of MTT solution was added and incubated for 2 h in CO2 incubator. Then 100 μl of solubilization buffer was added to each well and incubated overnight in CO2 incubator. Cell viability, assessed by the amount of metabolized MTT, was quantified by measuring absorbance at 570 nm.
(§7) MTT assay for the growth of different tumour cell lines with RAS mutations in soft agar with Sanguinarine chloride. Shown are data from three independent experiments. NCI-H358, H358, H2122, ASPC-1, HCT-116, T24 and HT1080 cells were used for the soft agar colony formation assay. After the treatment with Sanguinarine chloride, the colonies were stained with MTT and the value was quantified by measuring absorbance at 570 nm after solubilization. The results represent mean±SEM from 3 independent experiments.

T24 = assay: Soft agar colony formation assay, MTT; assay type: cell-based; settings: Homo sapiens, T-24, 3 independent experiments
Protocol: as §5, §6, §7

NCI-H2122 = assay: Soft agar colony formation assay, MTT; assay type: cell-based; settings: Homo sapiens, 3 independent experiments
Protocol: as §5, §6, §7

HCT-116 = assay: Soft agar colony formation assay, MTT; assay type: cell-based; settings: Homo sapiens; HCT-116, soft agar, 3 independent experiments
Protocol: as §5, §6, §7

ASPC1 = assay: Soft agar colony formation assay, MTT; assay type: cell-based; settings: Homo sapiens, 3 independent experiments
Protocol: as §5, §6, §7

[2] = system: different RAS-isoform addicted cell-lines; assay: Soft agar colony formation assay, MTT; assay type: cell-based
Protocol: as §5, §6, §7

NRAS G12V = target: T3, NRAS G12V (Homo sapiens, UniProt P01111, G12V); assay: NanoBit assay for RAS activation (LgBiT-NRAS G12V / SmBiT-CRAF RBD); assay type: cell-based; settings: 2 h with inhibitor, serum free DMEM
T3 construct: CRAF RBD (1-149) fused to SmBiT; transfected cells (HeLa S3 likely), NanoBiT
Protocol: as §2, §3, §4

NCI-H358 = assay: Soft agar colony formation assay, MTT; assay type: cell-based; settings: Homo sapiens, 3 independent experiments
Protocol: as §5, §6, §7, §4

[3] = system: Na+/K+-ATPase transmembrane protein; settings: through action on the Na+/K+-ATPase; cited from earlier work

T3 sequence (P01111 1-186 G12V): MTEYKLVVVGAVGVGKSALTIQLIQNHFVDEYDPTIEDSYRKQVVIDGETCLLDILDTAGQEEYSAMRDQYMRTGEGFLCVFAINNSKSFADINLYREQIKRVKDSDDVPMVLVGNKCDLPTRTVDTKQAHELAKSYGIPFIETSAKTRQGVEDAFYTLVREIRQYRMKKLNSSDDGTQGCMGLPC
T2 sequence (P01112 1-186 G12V): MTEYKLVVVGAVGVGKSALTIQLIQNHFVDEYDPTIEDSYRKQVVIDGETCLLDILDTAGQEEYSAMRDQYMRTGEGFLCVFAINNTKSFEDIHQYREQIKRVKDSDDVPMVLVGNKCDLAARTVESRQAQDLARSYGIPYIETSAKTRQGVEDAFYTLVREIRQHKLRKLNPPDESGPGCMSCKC
T1 sequence (P01116 1-188 isoform P01116-2 G12V): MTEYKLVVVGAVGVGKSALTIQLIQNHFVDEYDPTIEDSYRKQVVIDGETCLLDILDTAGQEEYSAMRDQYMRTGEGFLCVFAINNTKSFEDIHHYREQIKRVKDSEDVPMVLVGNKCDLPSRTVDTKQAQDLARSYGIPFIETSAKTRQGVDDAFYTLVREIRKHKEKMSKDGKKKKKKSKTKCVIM

Q: Which results are given for `C[n+]1cc2c3c(ccc2c2ccc4cc5c(cc4c21)OCO5)OCO3.[Cl-]` [Sanguinarine chloride, 13-Methyl-[1,3]benzodioxolo[5,6-c]-1,3-dioxolo[4,5-i]phenanthridinium chloide]?
A: IC50 (BaF3 KRAS G12C/Y96D): 1.76 µM; IC50 (BaF3 KRAS G12C): 1.19 µM; inhibition of KRAS dependent cells (KRAS dependent cells): inhibits KRAS dependent cells irrespective of the presence of mutation; inhibition of K-RAS activation (KRAS G12V): inhibits; IC50 (sNF96.2; 3 independent experiments): 1.39 µM; inhibition of RAS protein of RASOpathie (sNF96.2; MTT): inhibits RAS protein of RASOpathie; inhibition of different RAS-isoforms (RAS GTP-loading) [1]: inhibits different RAS-isoforms; inhibition of H-RAS activation (HRAS G12V): inhibits; IC50 (HT1080): 0.87 µM; IC50 (T24): 1.02 µM; IC50 (NCI-H2122): 1.55 µM; IC50 (HCT-116): 0.53 µM; IC50 (ASPC1): 0.97 µM; growth of RAS-isoform addicted cell-lines [2]: blocks the growth of different RAS-isoform addicted cell-lines and stops the growth of cancer; inhibition of N-RAS activation (NRAS G12V): inhibits; IC50 (NCI-H358): 1.45 µM

Q: Which “toxicity to animal cells” value [3] does the source give for `C[n+]1cc2c3c(ccc2c2ccc4cc5c(cc4c21)OCO5)OCO3` [Sanguinarine, 13-Methyl[1,3]benzodioxolo[5,6-c]-1,3-dioxolo[4,5-J]phenanthridinium] here?
A: Its value is “kills animal cells through its action on the Na+/K+-ATPase transmembrane protein”.

Reference: patent US20260294893A1, “NOVEL RAS INHIBITORS” (KHR Biotec GmbH, priority 2022, published 2026)
